This is an account of results in patent publication US20200231562A1, “NOVEL MACROLIDE ANTIBIOTICS” (HELMHOLTZ-ZENTRUM FÜR INFEKTIONSFORSCHUNG GMBH, priority 2014, published 2020).

Converted amounts (≈) assume the structure as drawn.

Data set [1] has as its system S. aureus N315 mutant Mt50DscA.2. The data set is described as follows: Susceptibility (MIC) of Disciformycin A-resistant mutant. It counts as cell-based. The conditions noted are these: Staphylococcus aureus.
Data set [2] has as its system S. aureus N315 mutant Mt50DscA.6. The description is as above. To be noted: Staphylococcus aureus. Type of data set: cell-based.
The subject of data set [3] is S. aureus N315 mutant Mt50DscA.11. Described as above. Type of data set: cell-based. The conditions noted are these: Staphylococcus aureus.
Data set [4] concerns S. aureus N315 mutant Mt50DscA.4. The description is as above. Type of data set: cell-based. The conditions noted are these: Staphylococcus aureus.
Data set [5] has as its system transformed lung epithelial A-549 cells. The data set is described as follows: MTT assay, cytotoxic activity. Type of data set: cell-based, human. The conditions noted are these: incubation 24 or 48 hours. The protocol: (§1) The cytotoxic activity of gulmirecin A (3) and gulmirecin B (4) against human cells was evaluated in the well-established MTT assay using primary monocytes from human peripheral blood as well as transformed lung epithelial cell A-549 cell and leukemic Mono Mac 6 cells. Furthermore, 3 and 4 were tested against K-562, HUVEC, and HeLa cells.
(§2) The human monocytic cell line Mono Mac 6 was cultured in RPMI 1640 medium supplemented with FCS (10%, v/v), penicillin (100 U/ml), streptomycin (100 μg/ml), insulin (10 μg/ml), oxaloacetic acid (1 mM), sodium pyruvate (1 mM), and 1× non-essential amino acids at 37° C. and 5% CO2. A-549 cells (DSM ACC-107) were cultured in DMEM high glucose (4.5 g/l) medium supplemented with FCS (10% v/v), penicillin (100 U/ml) and streptomycin (100 μg/ml) at 37° C. in a 5% CO2 incubator. K-562 (DSM ACC 10) and HeLa cells (DSM ACC 57) were grown in RPMI 1640, whereas cells of HUVEC (ATCC CRL-1730) were cultured in DMEM medium. The respective media were supplemented with ultraglutamine 1 (10 ml/l), gentamicin sulfate (500 μl/l), and FCS (10% v/v).
Cells (3×10^5 Mono Mac 6, 1×10^5 A-549 cells, or 2×10^6 monocytes per well) were seeded in a 96-well plate in the respective medium (100 μl/well). Monocytes were allowed to adhere for 1.5 hours (37° C., 5% CO2) prior to treatment. Test compounds (0.3% DMSO as vehicle) were added to each well and samples were incubated for 48 hrs. Then, 20 μl of thiazolyl blue tetrazolium bromide (MTT, 5 mg/ml PBS) were added, and the incubation was continued at 37° C., 5% CO2 until blue staining of the vehicle control. Formazan formation was stopped by adding 100 μl of lysis buffer (SDS, 10%, w/v in 20 mM HCl) and samples were shaken overnight. Absorbance of each well was measured at 570 nm in a Multiskan™ microplate spectrophotometer (Thermo Scientific).

For data set [6], the system named is S. aureus N315 mutant Mt50DscA.8. The data set is described as follows: Susceptibility (MIC) of Disciformycin A-resistant mutant. Type of data set: cell-based. To be noted: Staphylococcus aureus.
Data set [7] has as its system primary monocytes from human peripheral blood. The data set is described as follows: MTT assay, cytotoxic activity. It counts as cell-based. The conditions noted are these: incubation 24 or 48 hours. The protocol: as §1
Human primary monocytes were isolated from leukocyte concentrates, obtained from the Institute of Transfusion Medicine at the University Hospital Jena, Germany. The concentrates were prepared from the blood of healthy adult human donors who had not taken any anti-inflammatory medication for the 10 days prior to blood donation, as described. In brief, freshly withdrawn peripheral blood was pretreated with citrate-phosphate-dextrose solution as anticoagulant and processed with the 2C+ protocol of the Atreus Whole Blood Processing System (Terum BCT). Peripheral blood mononuclear cells (PBMC) were isolated by dextran sedimentation and centrifugation on LSM 1077 lymphocyte separation medium (PAA Laboratories). For isolation of monocytes, the PBMC were washed twice with ice-cold phosphate buffered saline (PBS) and plated (density 2×10^7 cells/ml) in culture flasks (Greiner Bio-One) containing PBMC medium (RPMI 1640 medium supplemented with 100 U/ml penicillin, 100 μg/ml streptomycin and 2 mM L-glutamine) for 1.5 hours at 37° C., 5% CO2. Non-adherent cells were removed; adherent monocytes were scraped, washed with ice-cold PBS and resuspended in ice-cold PBS with a purity of >85%, defined by forward- and side-light scatter properties and detection of the CD14 surface molecule by flow cytometry (BD FACS Calibur). […]
Cells (3×10^5 Mono Mac 6, 1×10^5 A-549 cells, or 2×10^6 monocytes per well) were seeded in a 96-well plate in the respective medium (100 μl/well). […] Absorbance of each well was measured at 570 nm in a Multiskan™ microplate spectrophotometer (Thermo Scientific).

Data set [8] deals with S. aureus N315 mutant Mt50DscA.10. As to the kind of experiment: Susceptibility (MIC) of Disciformycin A-resistant mutant. The conditions noted are these: Staphylococcus aureus. It counts as cell-based.
Data set [9] relates to S. aureus N315 mutant Mt50DscA.1. Described as above. It counts as cell-based. To be noted: Staphylococcus aureus.
Data set [10] relates to S. aureus N315 mutant Mt50DscA.5. The data set is described as above. Type of data set: cell-based. The conditions noted are these: Staphylococcus aureus.
The test system of data set [11] is S. aureus N315 mutant Mt50DscA.3. The description is as above. Type of data set: cell-based. To be noted: Staphylococcus aureus.
In data set [12] the test system is S. aureus N315 Mt50DscA.9. Described as above. The conditions noted are these: Staphylococcus aureus. It counts as cell-based.
For another data set, the system named is HeLa cells. The data set is described as follows: Cytotoxic effect (methylene blue staining). It counts as cell-based, human. To be noted: at a concentration of 100 μM. The protocol: as §2
The test substances were dissolved in methanol before being diluted in DMEM. The adherent cells were harvested at the logarithmic growth phase after soft trypsinization using 0.25% trypsin in PBS containing 0.02% EDTA. For each experiment, approximately 10,000 cells were seeded with 0.1 ml culture medium per well of the 96-well microplates. […] In case of K-562 cells, the number of viable cells in every well was determined using the CellTiter-Blue1 assay. […] The optical densities were measured at 660 nm in a SUNRISE microplate reader (TECAN).

Data set [13] has as its system S. aureus N315 wildtype (WT). The data set is described as follows: Susceptibility (MIC) of S. aureus N315 wildtype. Type of data set: cell-based. The conditions noted are these: Staphylococcus aureus.

As for `C/C=C(/C)[C@H]1C/C=C(\C)[C@@H](O[C@H]2O[C@H](CO)[C@@H](O)[C@@H]2O)[C@H](OC(=O)CC(C)C)C(=O)C[C@@H](O)[C@H](C)C(=O)O1` [Compound 3, gulmirecin A], the MIC in data set [1], in [2], in data set [3], in data set [4], in [6] and in data set [8] was above 64 µg/mL each time. Moreover, the MIC in [9] was above 64 µg/mL; in data set [10], 64 µg/mL (≈ 118 µM); in [11] it was above 64 µg/mL; in data set [12], above 64 µg/mL; in [13] it was 4 µg/mL (≈ 7.37 µM). Also, the “cell viability / cytotoxicity (MTT)” value in [5] and in [7] was “no reduction in cell viability at the concentrations required for antibacterial activity” throughout. Moreover, the inhibition of proliferation entry in the data set with HeLa cells is on record as “did not inhibit”.

Consider `C/C=C(/C)[C@H]1C/C=C(\C)[C@@H](O[C@H]2O[C@H](CO)[C@@H](O)[C@@H]2O)[C@H](OC(=O)CC(C)C)C(=O)C/C=C(/C)C(=O)O1` [Compound 1, disciformycin A], for which the minimum inhibitory concentration (MIC) in data set [1], in data set [2], in data set [3], in data set [4], in data set [6] and in data set [8] was above 64 µg/mL each time. In addition, the minimum inhibitory concentration (MIC) was above 64 µg/mL in data set [9]; 64 µg/mL (≈ 122 µM) in data set [10]; above 64 µg/mL in data set [11]; above 64 µg/mL in data set [12]; 4 µg/mL (≈ 7.62 µM) in [13].

With `C/C=C(/C)[C@H]1C/C=C(\C)[C@@H](O[C@H]2O[C@H](CO)[C@@H](O)[C@@H]2O)[C@H](O)C(=O)CC[C@H](C)C(=O)O1` [Compound 4, gulmirecin B], the minimal inhibitory concentration (MIC) in data set [1], in data set [2], in data set [3], in data set [4], in [6] and in data set [8] was above 64 µg/mL throughout. The minimum inhibitory concentration (MIC) in [9] is above 64 µg/mL; in data set [10] it was above 64 µg/mL; in data set [11], above 64 µg/mL; in data set [12], above 64 µg/mL; in data set [13] it was 32 µg/mL (≈ 72.3 µM). For the same compound, the “cell viability / cytotoxicity (MTT)” value in data set [5] and in data set [7] was “no reduction in cell viability at the concentrations required for antibacterial activity” each time. Besides, in the data set with HeLa cells, the inhibition of proliferation result is recorded as “did not inhibit”.
